Experimental data published in PubChem BioAssay AID179 (DTP/NCI, 2004).
pEC50, pIC50: −log10 of the molar value. Activity calls are given as the source filed them.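 Rule for the calls: active = compounds giving half or more protection of infected cells from virus-caused growth loss, again on retest; inactive = the rest.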

Tested on: CEM cells HIV-1 protection, formazan growth assay
Assay: NCI AIDS Antiviral Assay
Settings: for pIC50: measured here: growth of uninfected CEM cells
Procedure, shortened: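 Steps: treat uninfected and HIV-1-infected human CEM cells at five drug levels; quantify growth by soluble formazan; retest any compound reaching 50% protection; classify actives from the retest.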

| SMILES | pEC50 | pIC50 | outcome |
| --- | --- | --- | --- |
| COc1cc2c(cc1OC)C1Cc3ccc(OC)c(OC)c3C[N+]1([O-])CC2 (stereo unspecified) | < 3.87 | < 3.87 | – |
| CCN(CC)C1=CC(=O)c2nc(C)c(C)nc2C1=O | – | – | inactive |
| O=C1CC(C(CC(=O)c2ccccc2)c2ccccc2)C(=O)c2ccccc2N1 (stereo unspecified) | < 3.70 | 4.90 | – |
| COc1cccc(-c2[nH]c3cc4c(cc3c(=O)c2C(=O)O)OCO4)c1 | < 3.70 | 4.86 | – |
| O=[N+]([O-])c1ccc2nc(/C=C(\O)c3ccccc3)c(NC34CC5CC(CC(C5)C3)C4)nc2c1 | < 3.70 | 3.74 | – |
| CC(C)(C)SSC(=S)C(c1ccccc1)c1ccccc1 | < 3.70 | 3.74 | – |
| O=C1CSC(c2ccc([N+](=O)[O-])cc2)N1c1ccc(-n2c(-c3ccccc3)nc3ccccc3c2=O)cc1 (stereo unspecified) | < 3.70 | 3.89 | – |
| CS(=O)(=O)OCCNC[C@@H](O)[C@@H](O)CNCCOS(C)(=O)=O | < 3.16 | 5.86 | – |
| CCOC(=O)CC/C(=N/Nc1ccc(Cl)cc1[N+](=O)[O-])C(=O)OCC | < 3.70 | < 3.70 | – |
| Cc1cc(CO)c(O)c(CN(CCO)CCO)c1 | < 3.70 | 4.69 | – |
| COC1/C=C/OC2(C)Oc3c(C)c(O)c4c(O)c(c(/C=N/N5CCN(Cc6ccccc6)CC5)c(O)c4c3C2=O)NC(=O)C(C)=C/C=C/C(C)C(O)C(C)C(O)C(C)C(OC(C)=O)C1C (stereo unspecified) | < 3.70 | 4.99 | – |
| CC1(C)OC2C(O)CN3CCS[C@H]3C2O1 (stereo partly specified) | < 3.70 | < 3.70 | – |
| Oc1ccccc1C=NCc1ccco1 | – | – | inactive |
| CC(=O)C1CCN(Cc2ccccc2)C1 (stereo unspecified) | – | – | inactive |
| CCOc1ccnc2c(OC)c(C)c3nc4ccccc4nc3c12 | < 4.00 | < 4.00 | – |
| CC(=O)Oc1ccc2cc(Oc3ccccc3)c(=O)oc2c1 | < 3.70 | 4.07 | – |
| CC(C)(C)NC1=NC(C(F)(F)F)(C(F)(F)F)NC(=O)N1 | < 3.70 | 4.15 | – |
| S=C(c1c[nH]c2ccccc12)N1CCCCC1 | < 3.70 | 4.35 | – |
| CC1=C2C(=CO[C@H](C)[C@H]2C)C(=O)C(C(=O)O)=C1O | < 3.84 | 4.60 | – |
| COC(=O)c1cc([O-])c2sc(C)c(C)[n+]2n1 | < 2.98 | 3.14 | – |
| CS(=O)(=O)Sc1ccccc1C(=O)O | < 2.97 | < 2.97 | – |
| COC(=O)/C=C/c1cnc2c(c1)oc(=O)n2C | < 3.70 | < 3.70 | – |
| COc1cc(/C=C2\N=C(c3ccccc3)OC2=O)cc(OC)c1OC | < 4.67 | < 4.67 | – |

| SMILES | pEC50 | pIC50 | outcome |
| --- | --- | --- | --- |
| CN(CC(=O)O)S(=O)(=O)c1ccc2ccccc2c1 | – | – | inactive |
| O=C(O)C1(c2ccccc2)CCCNCC1 (stereo unspecified) | < 2.21 | < 2.21 | – |
| c1csc(-c2ccc(-c3ccsc3)s2)c1 | < 3.70 | < 3.70 | – |
| CC(C)=C/C=C1/CS(=O)(=O)C=C1C | < 3.70 | 3.87 | – |
| O=[N+]([O-])c1ccc(O)c(/C=N/NC(=S)N2CCCCC2)c1 | < 3.70 | 5.53 | – |
| CCOC(=O)C1(C#N)CC1 | – | – | inactive |
| O=C(O)[C@@H]1CSC(c2cccc(F)c2)N1 (stereo partly specified) | < 3.70 | < 3.70 | – |
| Oc1ccc(/C=N/c2nccs2)c(O)c1 | < 3.70 | 3.86 | – |
| COC(=O)C(=O)C1(CCC(C)=O)c2ccccc2-c2ccccc21 | – | – | inactive |
| CC(=O)c1c(O)c2ccccc2oc1=O | < 3.70 | 3.92 | – |
| CCOP(=O)(OCC)/C(C#N)=C/c1ccc(Br)cc1 | < 3.56 | 3.79 | – |
| CCC1Sc2cc(OC)cc([N+](=O)[O-])c2NC1=O (stereo unspecified) | < 3.70 | < 3.70 | – |
| COC(=O)C(NC(=O)CSc1nnc(COc2ccc(Cl)cc2)n1-c1ccccc1)C(C)C (stereo unspecified) | < 3.70 | 4.92 | – |
| COc1cc2ccc1-c1cc(ccc1O)CC1c3cc4c(cc3CCN1C)Oc1c(OC)cc3c(c1O4)C(C2)N(C)CC3 (stereo unspecified) | – | – | inactive |
| CC(=O)C(C)(CCC(=O)O)CCC(=O)O | < 3.02 | < 3.02 | – |
| Cc1cc(S(=O)(=O)n2ccnc2Oc2ccccc2N)c(SSc2cc(Cl)c(C)cc2S(=O)(=O)n2ccnc2Oc2ccccc2N)cc1Cl | < 4.00 | 4.71 | – |
| Cc1[nH]n(C(=O)c2ccccc2O)c(=O)c1/C=C1\C(=O)C=Cc2ccccc21 | < 4.71 | 6.40 | – |
| CC(C)(C)C1CCC2c3c([nH]c4ccccc34)C3C(=O)N(c4cc(Br)cc(Br)c4)C(=O)C3C2C1 (stereo unspecified) | < 3.70 | 4.90 | – |
| O=C1CSC2=NCCN12 | < 3.70 | < 3.70 | inactive |
| Cc1cc(=O)n2c(nc3ccccc32)s1 | < 3.70 | < 3.70 | – |
| O=c1c2cc(S(=O)(=O)Nc3ccccc3)ccc2ncn1NS(=O)(=O)c1ccccc1 | < 4.00 | 4.23 | – |
| NC1=NCC(CN2CCCCC2)O1 (stereo unspecified) | < 3.70 | < 3.70 | – |
| CC(CO)/[N+]([O-])=N/O (stereo unspecified) | < 3.32 | – | – |

| SMILES | pEC50 | pIC50 | outcome |
| --- | --- | --- | --- |
| Cn1cnc2ccccc2c1=S | < 3.70 | 3.74 | – |
| O=C1NC(=O)C(F)(n2cc(F)c(=O)[nH]c2=O)C(O)N1 (stereo unspecified) | < 3.70 | 4.26 | – |
| O=P(O)(O)C(N=C(Nc1ccccc1)Nc1ccccc1)P(=O)(O)O | < 4.00 | < 4.00 | – |
| C[C@@H](O)[C@H]1/C=C/C=C\C(=O)O[C@@H]2C[C@H]3O[C@@H]4[C@@H]5OC5(C)CCC4(COC(=O)[C@H]4O[C@]4(C)[C@@H](O)CO1)[C@]2(C)[C@]31CO1 (stereo partly specified) | < 6.70 | 7.20 | – |
| CC1(C)Cc2nnsc2C2=C1C(=O)CCS2 | – | – | inactive |
| COc1cc2c(-c3onc4ccc(OCc5ccccc5)cc34)nccc2c(OC)c1OC | – | – | inactive |
| N#Cc1cc2c(n(C3OC(CO)C(O)C(O)C3O)c1=S)CCC2 (stereo unspecified) | < 3.70 | < 3.70 | – |
| CCOC(=O)/C(C#N)=C/c1ccc(SCc2ccco2)c([N+](=O)[O-])c1 | < 3.70 | < 3.70 | – |
| Nc1c(C(=O)O)sc2ncccc12 | 3.85 | 3.66 | – |
| Nc1[nH]c(=O)nc(Nc2ccc(Cl)c(Cl)c2)c1N=O | < 3.70 | 4.87 | – |
| N#C[C@@H](c1ccccn1)c1ncccc1[N+](=O)[O-] | < 3.70 | < 3.70 | – |
| CSc1nc(N)n(C(=O)c2ccc([N+](=O)[O-])cc2)n1 | < 4.87 | < 4.87 | – |
| CCOC(=O)CN1C(=O)C(=O)c2ccccc21 | < 3.70 | 4.47 | – |
| O=C(O)CSc1cc(-c2ccc(Cl)cc2)s[s+]1 | < 3.70 | < 3.70 | – |
| OCCCCCNc1ccnc2cc(Cl)ccc12 | < 3.08 | 4.32 | – |
| COC(=O)/C(=N\NC(C)(C)C)C(C(=O)C(=O)Nc1cc(C)ccc1C)c1nc2ccccc2[nH]c1=O (stereo unspecified) | – | – | inactive |
| N#COc1ccc(Oc2ccc(OC#N)cc2)cc1 | < 3.85 | 4.34 | – |
| O=C(/C=N/O)Nc1ccc(Cl)c(I)c1 | < 4.10 | 4.19 | – |
| CC(=O)C(=Cc1ccc([N+](=O)[O-])cc1)C(C)=O | < 3.81 | 4.56 | – |
| CCN(CC)C1C=CCC2C1S(=O)(=O)C2(C)C (stereo unspecified) | < 3.01 | < 3.01 | – |
| CCOC(=O)c1cc(I)c(-c2cc(C)no2)n1C | < 3.70 | 4.43 | – |
| C[n+]1c(-c2ccc(/C=N/NC(=O)c3ccc(C(=O)N/N=C/c4ccc(-c5cn6ccccc6[n+]5C)cc4)nc3)cc2)cn2ccccc21 | 5.58 | 4.66 | – |
| O=C(CN1CCCCC1)OCOP(=O)(OCOC(=O)CN1CCCCC1)OCC1CCC(n2ccc(=O)[nH]c2=O)O1 (stereo unspecified) | < 4.00 | 4.44 | – |

| SMILES | pEC50 | pIC50 | outcome |
| --- | --- | --- | --- |
| O=[N+]([O-])/C=C/c1ccc(O)cc1 | – | – | inactive |
| O=P(O)(O)C(CSc1ccccc1)P(=O)(O)O | – | – | inactive |
| COc1cccc(Nc2nc3c([nH]2)c(=O)n(C)c(=O)n3C)c1 | < 3.77 | 4.05 | – |
| CC1=C(C(=O)NCc2ccccc2)C(c2ccc(N(C)C)cc2)C(C(=O)NCc2ccccc2)=C(C)N1 | < 4.14 | < 4.14 | – |
| CCOC(=O)C1c2[nH]c3ccccc3c2CCN1C(=O)c1ccc(OC)o1 (stereo unspecified) | < 4.29 | 4.41 | – |
| NC(=O)CSSCC(N)=O | 4.67 | 4.15 | – |
| COc1ccc(C(OCC2OC(n3ccc(Oc4c(F)c(F)c(F)c(F)c4F)nc3=O)CC2OP(OCCC#N)N(C(C)C)C(C)C)(c2ccccc2)c2ccc(OC)cc2)cc1 (stereo unspecified) | < 3.70 | 4.05 | – |
| N#C/C(=C\c1ccc(O)c(O)c1)C(=O)NC1CCC(CC2CCC(NC(=O)/C(C#N)=C/c3ccc(O)c(O)c3)CC2)CC1 (stereo unspecified) | < 3.70 | 5.97 | – |
| N#Cc1c(N2CCCC2)nsc1Nc1ccc(F)cc1 | < 3.70 | < 3.70 | – |
| CCCCCCCCCCCC(=O)OCC(C[As](=O)(O)O)OC(=O)CCCCCCCCCCC (stereo unspecified) | < 3.70 | 5.74 | – |
| NC1=NN(c2ccccc2)C(=O)C1C(=O)CCC(=O)Nc1cccc(C(F)(F)F)c1 (stereo unspecified) | < 3.37 | 3.39 | – |
| CCO[C@@H]1N(C2CC(N=[N+]=[N-])C(CO)O2)C(=O)NC(=O)[C@@]1(C)Cl (stereo partly specified) | < 3.70 | < 3.70 | – |
| Oc1ccc(Cn2c(-c3ccc(O)cc3)nc3ccccc32)cc1 | < 3.10 | < 3.10 | – |
| O=C(/C=C/c1ccccc1)/C=C/c1ccccc1O | < 3.84 | 4.21 | – |
| COC(=O)CCC(=O)Nc1cc(Cl)ccc1Cl | < 3.33 | < 3.33 | – |
| CCN(CC)/N=C\c1c2ccccc2cc2ccccc12 | < 3.70 | 4.07 | – |
| C[C@]12CC[C@H](CC=C(c3cc(Cl)c(O)c(C(=O)O)c3)c3cc(Cl)c(O)c(C(=O)O)c3)C[C@@H]1CC[C@@H]1[C@@H]2CC[C@]2(C)[C@@H](CC=C(c3cc(Cl)c(O)c(C(=O)O)c3)c3cc(Cl)c(O)c(C(=O)O)c3)CC[C@@H]12 | 4.54 | 4.34 | – |
| NNC(=O)c1n[nH]nc1SSc1n[nH]nc1C(=O)NN | – | – | inactive |
| CC(=O)OCC1OC(n2c(-c3ccccc3)cc(-c3ccccc3)c(C#N)c2=O)C(OC(C)=O)C(OC(C)=O)C1OC(C)=O (stereo unspecified) | < 4.78 | < 4.78 | – |
| Cc1ccc(SSCCCCCS(=O)O)cc1 | – | – | inactive |
| COc1cccc(-n2cccc2)c1 | < 3.70 | < 3.70 | – |
